Measurements from patent US5965539A, “Inhibitors of prenyl transferases” (Univeristy of Pittsburgh, priority 1996, dated 1999).

What was measured:
GGTase I = molecular target: T1, GGTase I (Homo sapiens, UniProt P53609); experiment: GGTase I activity assay: transfer of [3H]geranylgeranyl to recombinant H-Ras-CVLL, Daudi 60,000xg supernatant; type: biochemical; conditions: Table 1; read-out: GGTase I IC50
T1 construct: FTase and GGTase I activities from 60,000×g supernatants of human Burkitt lymphoma (Daudi) cells; endogenous in cells; host or cells: human Burkitt lymphoma (Daudi) cells, 60,000xg supernatant (partially purified)

[1] = system: H-RasGG activation of MAPK; conditions: 5 μM, FIG. 5B
Ras nucleotide state = conditions: H-RasF cells
Description: H-RasF cells were seeded and treated as above for Ras/Raf interaction and Ras and Rap1A processing. On day 2, however, cells were labeled overnight with [^32 P] orthophosphate at 100 μCi/mo (Amersham PBS13) in 10 ml DMEM-phosphate supplemented with 10% calf serum, 1 mg/ml BSA and 20 mM HEPES, pH 7.5. On day 3, the medium was removed and cells were washed one time in ice-cold PBS, scraped from the plate with a cell scraper, collected and centrifuged. The cell pellet was resuspended in ice-cold hypotonic buffer listed above and the cytosol and membrane fractions were separated according to the above description for Ra/Raf association. The cytosol and membrane fractions were lysed on ice for 60 min in 50 mM Tris, pH 7.5, 5 mM MgCl2, 1% Triton X-100 (TX-100), 0.5% DOC, 0.05% SDS, 500 mM NaCl, 1 mM EGTA, 10 μg/ml aprotinin, 10 μg/ml soybean trypsin inhibitor, 25 μg/ml leupeptin, 1 mM DTT, 1 mg/ml BSA. Lysates were cleared and equal amounts of protein were immunoprecipitated using anti-Ras antibody (Y13-259) along with 30 μl Protein A-Agarose goat anti-rat IgG complex (Oncogene Science) for 60 min at 4° C. […] Plates were analyzed by autoradiogram.

FTase = molecular target: T2, FTase (Homo sapiens, UniProt P49356); experiment: FTase activity assay: transfer of [3H]farnesyl from FPP to recombinant H-Ras-CVLS, Daudi 60,000xg supernatant; type: biochemical; conditions: Table 1
T2 construct: FTase and GGTase I activities from 60,000×g supernatants of human Burkitt lymphoma (Daudi) cells; endogenous in cells; host or cells: human Burkitt lymphoma (Daudi) cells, 60,000xg supernatant (partially purified)

[2] = system: Calu-1 human lung carcinoma; conditions: 50 mg/kg once daily
Description: Calu-1 (Panel A) and NCI-H810 cells (Panel B) were purchased from ATCC and grown in McCoy's 5A medium in 10% FBS (Fetal Bovine Serum) and RPMI 1640 in 10% FBS, respectively. The cells were harvested, resuspended in PBS and injected s.c. into the right and left flank of 8 week old female nude mice (10^7 cells/flank). Nude mice (Harlan Sprague Dawley, Indianapolis, Ind.) were maintained in accordance with the Institutional Animal Care and Use Committee (IACUC) procedures and guidelines. On day 32 after s.c. implantation of tumors, animals were dosed i.p. with 0.2 ml once daily for 36 days. […] The tumor volumes were determined by measuring the length (l) and the width (w) and calculating the volume (V=(l)×(w)^2 /2). Data are presented as the average volume of eight tumors in each group for each cell line. Statistical significance between control and treated groups were evaluated by using student t test (*P<0.05).
In this model, tumors from two human lung carcinoma cell lines are implanted subcutaneously. One of these (Calu-1) harbors a K-Ras oncogenic mutation and has a deletion of the tumor suppressor gene p53. The other human lung carcinoma ([…]) has no Ras mutations.

T2 sequence (P49356 whole entry): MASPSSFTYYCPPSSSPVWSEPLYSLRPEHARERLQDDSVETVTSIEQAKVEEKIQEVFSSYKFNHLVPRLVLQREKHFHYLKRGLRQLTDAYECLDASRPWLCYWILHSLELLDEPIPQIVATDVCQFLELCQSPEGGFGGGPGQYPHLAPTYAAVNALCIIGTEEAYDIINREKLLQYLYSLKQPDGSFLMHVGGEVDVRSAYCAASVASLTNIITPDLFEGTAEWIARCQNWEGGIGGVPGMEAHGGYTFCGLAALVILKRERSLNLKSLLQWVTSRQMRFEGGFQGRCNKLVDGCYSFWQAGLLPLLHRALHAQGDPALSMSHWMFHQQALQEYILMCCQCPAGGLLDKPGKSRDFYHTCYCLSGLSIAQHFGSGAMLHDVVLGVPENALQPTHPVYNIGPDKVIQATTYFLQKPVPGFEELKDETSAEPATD
T1 sequence (P53609 whole entry): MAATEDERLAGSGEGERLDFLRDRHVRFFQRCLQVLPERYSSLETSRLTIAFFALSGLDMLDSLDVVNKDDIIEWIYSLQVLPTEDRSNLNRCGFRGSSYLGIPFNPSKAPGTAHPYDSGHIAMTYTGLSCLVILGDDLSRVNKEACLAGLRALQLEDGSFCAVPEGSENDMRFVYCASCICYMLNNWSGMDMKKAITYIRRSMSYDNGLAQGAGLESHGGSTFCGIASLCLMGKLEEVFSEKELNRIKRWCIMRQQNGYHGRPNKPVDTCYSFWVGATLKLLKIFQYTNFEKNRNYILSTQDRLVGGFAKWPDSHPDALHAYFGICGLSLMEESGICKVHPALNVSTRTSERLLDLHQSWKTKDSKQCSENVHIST

IC50 (GGTase I): 1600 nM
GG/F (FTase; ratio GGTase I IC50 / FTase IC50): 32
IC50 (FTase; read-out: FTase IC50): 50 nM
Structure (SMILES): COC(=O)[C@H](CCSC)NC(=O)c1ccc(NC[C@@H](N)CS)cc1-c1ccccc1 [FTI-277, 4-N-[2(R)-Amino-3-mercaptopropyl]amino-2-phenylbenzoyl methionine methyl ester]
block of H-RasGG activation of MAPK [1]: able to block H-RasF but not H-RasGG activation of MAPK
nucleotide state of non-farnesylated cytosolic Ras (Ras nucleotide state): GTP bound
tumor growth of Calu-1 [2]: inhibited the growth of Calu-I cells to the same extent
